11 molecules from ChEMBL document CHEMBL1201862, “PubChem BioAssay data set” (2004) can be followed below.

Test systems include RPMI-8226; LOX IMVI; HCT-116; SF-295; SK-OV-3; MOLT-4; MDA-N; CAKI-1; A549; SN12C; SW-620; T47D; COLO 205; EKVX; SF-539; NCI-H460; NCI-H522; HT-29.
Test in all cases: DTP human tumour cell line panel, 48 h

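Tested at 5 concentrations; 48 h exposure; 96-well plates; endpoints linearly interpolated, else capped at highest concentration. GI50: concentration for 50% inhibition of growth.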 Active and inactive are the calls of the source. Cut-off read from the data, not from the text of the source: active = GI50 up to about 1.1 µM and inactive = higher. Where a SMILES comes first, the peptide text is derived from it. The star is where a group is joined. Boc = CC(C)(C)OC(=O)*

For the molecule `Nc1cc2c3c(cccc3c1)C(=O)N(c1ccc(OCCN3CCCC3)cc1)C2=O`, the GI50 in the assay on RPMI-8226 is 22.4 µM (inactive); in the assay with LOX IMVI, 17 µM (inactive); with HCT-116 it was 14.7 µM (inactive); in the assay with SF-295 it was 13.5 µM (inactive); in the assay on SK-OV-3, 1.61 µM (inactive); in the assay on MOLT-4, 18.5 µM (inactive). In addition, the GI50 was 16.6 µM (inactive) in the assay on MDA-N; 45.3 µM (inactive) with CAKI-1; 16.2 µM (inactive) in the assay with A549; 21.8 µM (inactive) with SN12C; 29.4 µM (inactive) in the assay on SW-620; 21.2 µM (inactive) in the assay with T47D. For the same molecule, the GI50 in the assay with COLO 205 is 14.1 µM (inactive); in the assay on EKVX, 18.4 µM (inactive); in the assay on SF-539 it was 13.3 µM (inactive); with NCI-H460, 11.5 µM (inactive); in the assay with NCI-H522 it was 16 µM (inactive); in the assay with HT-29, 13.5 µM (inactive).

Take `CNC(=O)CNC(=O)C(NC(=O)CNC(=O)C1CCCN1C(=O)C(C)NC(=O)C(NC(=O)OC(C)(C)C)C(C)C)C(C)C` (centres undefined) (Boc-VAPGVG-NHMe; configuration not given here): the GI50 with RPMI-8226, in the assay on LOX IMVI, in the assay with HCT-116, in the assay on SF-295, with SK-OV-3 and in the assay with MOLT-4 was > 100 µM (inactive) throughout. For the same molecule, the GI50 with MDA-N, in the assay on CAKI-1, in the assay on SN12C, with SW-620, with T47D and in the assay on COLO 205 was > 100 µM (inactive) throughout. Also, the GI50 in the assay with EKVX, in the assay on SF-539, in the assay with NCI-H460, in the assay on NCI-H522 and with HT-29 was > 100 µM (inactive) each time.

With `c1ccc(CSc2ccccc2CN2CCN(Cc3ccccc3SCc3ccccc3)CCN(Cc3ccccc3SCc3ccccc3)CC2)cc1`, the GI50 was 0.384 µM (active) in the assay with RPMI-8226; 1.33 µM (inactive) in the assay on LOX IMVI; 0.646 µM (active) in the assay on HCT-116; 1.04 µM (active) in the assay on SF-295; 2.21 µM (inactive) in the assay on SK-OV-3; 1.63 µM (inactive) in the assay on MOLT-4. Further, the GI50 with MDA-N is 1.52 µM (inactive); in the assay on CAKI-1, 3.21 µM (inactive); in the assay on A549 it was 2.35 µM (inactive); in the assay with SN12C it was 1.72 µM (inactive); with SW-620, 2.38 µM (inactive); in the assay on T47D, 1.43 µM (inactive). The GI50 in the assay with COLO 205 is 0.869 µM (active); with EKVX, 1.2 µM (inactive); in the assay with SF-539, 1.86 µM (inactive); in the assay on NCI-H460, 1.19 µM (inactive); with NCI-H522, 0.395 µM (active); in the assay on HT-29, 0.499 µM (active).

Take `CSc1ncnc2c1cnn2CCCCO`: the GI50 in the assay on RPMI-8226, with LOX IMVI, in the assay on HCT-116, in the assay on SF-295, with SK-OV-3 and with MOLT-4 was > 100 µM (inactive) in each case. The GI50 with MDA-N, with CAKI-1, with A549, in the assay on SN12C, with SW-620 and in the assay with T47D was > 100 µM (inactive) in each case. Besides, the GI50 in the assay on COLO 205, with EKVX, in the assay with SF-539, in the assay on NCI-H460, in the assay with NCI-H522 and with HT-29 was > 100 µM (inactive) each time.

Regarding `O=C(O)CCC(C(=O)O)N1C(=O)C2C3CCC(C3)C2C1=O` (centres undefined), the GI50 in the assay on RPMI-8226, in the assay on LOX IMVI, in the assay with HCT-116, in the assay on SF-295, in the assay on SK-OV-3 and with MOLT-4 was > 100 µM (inactive) each time. The GI50 in the assay with MDA-N, in the assay on CAKI-1, in the assay on A549, with SN12C, in the assay on SW-620 and with T47D was > 100 µM (inactive) each time. Also, the GI50 with COLO 205, with EKVX, with SF-539, in the assay with NCI-H460, in the assay with NCI-H522 and in the assay with HT-29 was > 100 µM (inactive) throughout.

On to `CC(C)N(CC(=O)O)CC(=O)O`, for which the GI50 in the assay with RPMI-8226, in the assay with LOX IMVI, with HCT-116, in the assay on SF-295, in the assay on SK-OV-3 and with MOLT-4 was > 100 µM (inactive) in each case. The GI50 in the assay with MDA-N, in the assay with CAKI-1, in the assay on A549, in the assay with SN12C, with SW-620 and in the assay with T47D was > 100 µM (inactive) each time. Besides, the GI50 in the assay with COLO 205, in the assay on EKVX, in the assay with SF-539, with NCI-H460, in the assay with NCI-H522 and in the assay with HT-29 was > 100 µM (inactive) each time.

As to `CNC(=O)CNC(=O)C(NC(=O)CNC(=O)C1CCCN1C(=O)C(C)NC(=O)C(NC(C)=O)C(C)C)C(C)C` (centres undefined) (Ac-VAPGVG-NHMe; configuration not given here), the GI50 with RPMI-8226, in the assay with LOX IMVI, in the assay on HCT-116, in the assay on SF-295, in the assay with SK-OV-3 and in the assay on MOLT-4 was > 100 µM (inactive) throughout. Further, the GI50 with MDA-N, in the assay on CAKI-1, in the assay on SN12C, with SW-620, in the assay on T47D and with COLO 205 was > 100 µM (inactive) in each case. Moreover, the GI50 with EKVX, in the assay with SF-539, in the assay on NCI-H460, in the assay with NCI-H522 and with HT-29 was > 100 µM (inactive) in each case.

With `COc1ccc(C(=O)/C=C/c2cc(O)c(O)cc2F)c(OC)c1`, the GI50 in the assay with RPMI-8226 is 3.34 µM (inactive); in the assay on LOX IMVI, 10.6 µM (inactive); with HCT-116 it was 6.97 µM (inactive); in the assay on SF-295, 5.65 µM (inactive); in the assay on SK-OV-3, 10.6 µM (inactive); in the assay on MOLT-4 it was 3.71 µM (inactive). Further, the GI50 in the assay with MDA-N is 2.54 µM (inactive); in the assay on CAKI-1, 9.04 µM (inactive); with A549, 10.5 µM (inactive); with SN12C, 3.94 µM (inactive); with SW-620, 6.82 µM (inactive); in the assay on T47D, 4.05 µM (inactive). The GI50 with COLO 205 is 15.8 µM (inactive); in the assay with EKVX, 14.4 µM (inactive); in the assay with SF-539, 6.04 µM (inactive); with NCI-H460, 3.99 µM (inactive); in the assay with NCI-H522 it was 0.354 µM (active); in the assay with HT-29 it was 7.48 µM (inactive).

For `N#CSc1[nH]cnc1C(N)=O`, the GI50 with RPMI-8226 was 4.22 µM (inactive); in the assay on LOX IMVI, 41.3 µM (inactive); in the assay on HCT-116 it was 60 µM (inactive); in the assay on SF-295 it was > 100 µM (inactive); in the assay on SK-OV-3 it was > 100 µM (inactive); in the assay on MOLT-4, > 10 µM (inactive). For the same molecule, the GI50 with MDA-N was 22.1 µM (inactive); in the assay with CAKI-1, > 44.4 µM (inactive); in the assay with A549 it was > 100 µM (inactive); in the assay on SN12C, 27.9 µM (inactive); in the assay on SW-620 it was 90.6 µM (inactive); with T47D it was > 75.5 µM (inactive). The GI50 in the assay on COLO 205 was > 81.8 µM (inactive); in the assay with EKVX, > 100 µM (inactive); in the assay on SF-539 it was 77.3 µM (inactive); in the assay with NCI-H460 it was > 100 µM (inactive); with NCI-H522, 51.4 µM (inactive); with HT-29, > 100 µM (inactive).

`CC(=O)Nc1ccc2cc(C#N)c(=O)[nH]c2n1`: the GI50 with RPMI-8226, in the assay on LOX IMVI, in the assay on HCT-116, in the assay with SF-295, in the assay with SK-OV-3 and with MOLT-4 was > 100 µM (inactive) in each case. Also, the GI50 in the assay on MDA-N, in the assay on CAKI-1, in the assay on A549, in the assay on SN12C, with SW-620 and in the assay with T47D was > 100 µM (inactive) throughout. Further, the GI50 in the assay with COLO 205, in the assay on EKVX, in the assay with SF-539, with NCI-H460 and in the assay with NCI-H522 was > 100 µM (inactive) each time.

As for `C=C1C(=O)O[C@@H]2C(=O)[C@@H](C)CCC/C(C)=C/CC[C@@]3(C)O[C@@H]3C[C@@H]12`, the GI50 in the assay on RPMI-8226 is 18.6 µM (inactive); with LOX IMVI, 18.9 µM (inactive); with HCT-116 it was 29.4 µM (inactive); in the assay with SF-295, > 100 µM (inactive); in the assay on SK-OV-3, > 100 µM (inactive); in the assay with MOLT-4 it was 28.6 µM (inactive). The GI50 with MDA-N is 34.4 µM (inactive); in the assay on CAKI-1 it was 19.9 µM (inactive); with A549, > 100 µM (inactive); in the assay on SN12C it was 40.3 µM (inactive); in the assay with SW-620, 20.8 µM (inactive); in the assay with T47D, 87.9 µM (inactive). The GI50 is 24 µM (inactive) in the assay with COLO 205; 37.7 µM (inactive) in the assay on EKVX; 25.2 µM (inactive) in the assay with SF-539; 12.1 µM (inactive) in the assay on NCI-H522; 14.3 µM (inactive) in the assay with HT-29.

For orientation: GI50 means the concentration at which growth is held to half of that of the control.
